From patent publication US20230405063A1, “USE OF PROBIOTIC COMPONENT AND PHARMACEUTICAL COMPOSITION CONTAINING PROBIOTIC COMPONENT” (CHENGDU KUACHANGAOPU MEDICAL TECHNOLOGY CO., LTD., priority 2020, published 2023)

Tests used:
Type in all cases: in vivo
[1] = system: mouse breast cancer 4T1 cells; assay: Middle-aged and elderly patient model, 4T1 tumors in eight-month-old mice, r′3d/r′21d (Example 14, Table 19); details: single intratumoral injection, 50 l/mouse; for Tumor inhibition rate r′3: day 3 after administration; for Tumor inhibition rate r′21: day 21 after administration
Text: (§1) V=0.5×a×b^2, wherein a and b represent the length and width of the local lesion, respectively; Volume of the local lesion (e.g. tumor):
(§2) Local lesion (e.g., tumor) proliferation rate (R)=TV/CV×100, wherein TV and CV are the local lesion volumes in the study group and negative control group, respectively;
(§3) The method for determining the effect of combined drug administration in animal experiments was Burgi method (Burgi Y. Pharmacology; Drug actions and reactions. Cancerres. 1978, 38(2), 284-285). The Burgi method was modified by Zhengjun JIN (Zhengjun JIN, Equal probability and curve and “Q50”, Journal of the Second Shanghai Medical College; 1981, 1, 75-86) with q calculated as: q=EA+B/(EA+EB−EA×EB). In the following examples of the present invention, the combinational pharmaceutical efficacies (drug efficacies) of drug A and drug B co-administration was determined by ratio q of actual pharmaceutical efficacy (drug efficacy)/theoretical pharmaceutical efficacy (drug efficacy) according to Zhengjun JIN method, as follows.
Eight-month-old mice were used as experimental subjects in the middle-aged and elderly patient model, 0.5×10^5 mouse breast cancer 4T1 cells/mouse were injected into the right axilla subcutaneously for transplantation tumor modeling, and the mean tumor volume of successfully modeled nude mice was 117.3 mm^3. The model animals were randomly divided into 18 groups. Each group was administered once by intratumoral injection according to the drug grouping in Table 19 with an injection volume of 50 l/mouse. The local lesion volume (V) was measured on day 3 and day 21 after drug administration, and the tumor inhibition rates (r′3d, r′21d) were calculated at each of time points relative to the negative control group, and the results were shown in the following Table. The drugs to be administered were prepared according to the conventional preparation method for aqueous solution or according to the preparation method in Example 1. The actual/expected ratio q3d for short-term drug efficacy and the actual/expected ratio […] for medium- and long-term drug efficacy were calculated based on the drug efficacies (r′3d, r′21d) at different times (day 3, day 21), respectively.

[2] = system: gastric tumor cells (BGC823); assay: Tumor inhibition in BGC823 tumor-bearing nude mice (Example 5, Table 8); details: intratumoral injection once, 150 μl/mouse, 7th day
Text: as §3
Nude mice were used as experimental subjects, and gastric tumor cells (BGC823) were used as modeling cells, 1×10^5 cells/mouse were injected into the right axilla subcutaneously for transplantation tumor modeling, and the average tumor volume of successfully modeled nude mice was 164.4 mm^3. The model animals were randomly divided into 14 groups, and the drugs according to the pharmacological constitutions in Table 8 were administered via intratumoral injection. Each group was dosed once with an injection volume of 150 μl/mouse; wherein the pharmaceutical compositions of groups 5, 11 were semi-fluid, the pharmaceutical compositions of other groups are liquid. On the 7th day after drug administration, the animals were euthanized, and after dissection, the tumor tissue was taken out to determine the tumor weight, and the tumor inhibition rate (r) was calculated relative to the negative control group. Further, the actual efficacy/expected efficacy ratio q of a drug could also be calculated according to the therapeutic effect (tumor inhibition rate).

[3] = system: mouse embryonic fibroblasts 3T3; assay: Local lesion inhibition in 3T3 fibroblast nodule model in nude mice (Example 6, Table 9); details: dosed twice at interval of 2 days, 150 μl/mouse/time, 7th day after final administration
Text: as §1, §2, §3
Nude mice were used as experimental subjects, and mouse embryonic fibroblasts 3T3 were used as modeling cells. 2×10^4 cells/mouse were injected into the right axilla subcutaneously for transplantation nodule modeling, and the average volume of tumor-like nodules in successfully modeled nude mice was 171.5 mm^3. The model animals were randomly divided into […], and the drugs were administered according to Table 9. Each group except for groups 21-24 were administered by intraperitoneal injection, intra-nodal injection. The drugs used in groups 21-24 were a composition of non-local administration dosage form (dosage form that a probiotic component and a co-administration substance could be administered separately). The administration route of series A was: intraperitoneal injection of probiotic component+intra-nodal injection of co-administration substance; and the administration route of series B was: intraperitoneal injection of co-administration substance+intra-nodal injection of probiotic component. Each group was dosed twice at an interval of 2 days, with an injection volume of 150 μl/mouse/time. On the 7th day after the final administration, the volume (V) of local lesions comprising fibroblasts was measured, and the relative local lesion inhibition rates (r′A, r′B) were calculated for series A and series B, respectively, as compared with the negative control group. Further, the actual drug efficacy/expected efficacy ratio q could also be calculated according to the therapeutic effect (local lesion inhibition rate).

[4] = system: human hepatoma cells (HepG2); assay: Tumor inhibition in HepG2 tumor-bearing nude mice, probiotic component/methylene blue (Example 7, Table 11); details: dosed twice, interval 7 days, 150 μl/mouse/time, 7th day after final administration, probiotic component = inactivated Saccharomyces cerevisiae
Text: as §3
Nude mice were used as experimental subjects, and human hepatoma cells (HepG2) were used as modeling cells. […] The model animals were randomly divided into 13 groups, and the drugs were administered according to Table 11. […] Each group was dosed twice with an interval of 7 days, and the injection volume was 150 μl/mouse/time. On the 7th day after final administration, the animals were euthanized, and the tumor tissues were taken out after dissection to determine the tumor weight, and the tumor inhibition rate was calculated relative to the negative control group.

breast cancer 4T1 cells = assay: Short-term tumor inhibition in 4T1 tumor-bearing BALB/c mice (Example 9, Table 14); details: dosed twice, 7th day after final administration
Text: as §3
BALB/c mice were used as experimental subjects, and breast cancer 4T1 cells were used as modeling cells. 0.5×10^6 cells/mouse were injected into the right axilla subcutaneously for transplantation tumor modeling, and the average tumor volume of successfully modeled nude mice was 160.1 mm^3. The model animals were randomly divided into 21 groups, and the drugs were administered by intravenous injection (series A) and intratumoral injection (series B) according to the drugs and doses in Table 14, respectively. All the drugs administered were aqueous liquids, which were formulated according to the method of Example 1. Each group was dosed twice. On the 7th day after final administration, the animals were euthanized, and the tumor tissues were taken out after dissection to determine the tumor weight, and the tumor inhibition rates rA and rB were calculated relative to the corresponding negative control groups in series A and series B.

| SMILES | Tumor inhibition rate r′3 [1] [%] | Tumor inhibition rate r′21 [1] [%] | Tumor inhibition rate r [2] [%] | Tumor weight (x ± s) [2] [g] | V (x ± s), volume of local lesions, series B ([3]; intra-nodal injection) [cm^3] | V (x ± s), volume of local lesions, series A ([3]; intraperitoneal injection) [cm^3] | Tumor inhibition rate [4] [%] | Tumor weight (x ± s) [4] [g] | Tumor weight (x ± s) ([4]; listed as 0.15% methylene blue) [g] | Tumor inhibition rate ([4]; listed as 0.50% methylene blue) [%] | Tumor weight (x ± s) ([4]; listed as 0.50% methylene blue) [g] | Tumor inhibition rate ([4]; listed as 3% methylene blue) [%] | Tumor weight (x ± s) ([4]; listed as 3% methylene blue) [g] | tumor inhibition rate rA (breast cancer 4T1 cells; series A: intravenous injection) [%] | tumor inhibition rate rB (breast cancer 4T1 cells; series B: intratumoral injection) [%] |
| --- | --- | --- | --- | --- | --- | --- | --- | --- | --- | --- | --- | --- | --- | --- | --- |
| OC[C@H]1OC(O)[C@H](O)[C@@H](O)[C@@H]1O (some centres unmarked) [20% glucose aqueous solution] | 3.1 | 4.3 | – | – | – | – | – | – | – | – | – | – | – | – | – |
| CN(C)c1ccc2nc3ccc(=[N+](C)C)cc-3sc2c1 [1% methylene blue, methylene blue] | – | – | 12.5 | 0.197 ± 0.062 | 1.020 ± 0.210 | 1.288 ± 0.205 | 26.4 | 0.186 ± 0.096 | 0.227 ± 0.107 | 17.7 | 0.208 ± 0.115 | 71.1 | 0.073 ± 0.033 | 3.7 | 13.4 |
| OC[C@H]1OC(O)[C@H](O)[C@@H](O)[C@@H]1O (some centres unmarked) [30% glucose aqueous solution] | 20.8 | 8.2 | – | – | – | – | – | – | – | – | – | – | – | – | – |
